Patent US10813929B2, “Treating cancer with ATR inhibitors” (VERTEX PHARMACEUTICALS INCORPORATED, priority 2011, dated 2020)

Key:
Format in all cases: cell-based
MRCS fibroblasts = test: Cell viability assay (Alamar Blue) with irradiation, normal cells; conditions: VE-821 for 96 h with or without 4 Gy; viability after 8 days; FIG. 1 panel B
Protocol: PSN-1, Panc-1, MiaPaCa-2 pancreatic cancer cell lines and MRCS fibroblasts were treated with increasing concentrations of VE-821 for 96 h combined with or without 4 Gy radiation at 1 h after VE-821 addition. Cell viability was measured after 8 days and shown as normalized to DMSO-treated cells. MiaPaCa-2, PSN-1, Panc1 and MRCS cells (5×104) were plated in 96-well plates and after 4 h treated with increasing concentrations of VE-821 at 1 h before irradiation with a single dose of 6 Gy. Medium was replaced 96 h post-irradiation at which point viability was measured using the using the Alamar Blue assay (Resazurin substrate, SIGMA). Cells were allowed to proliferate and cell viability was again analyzed at day 8 for the different treatment conditions. Cell viability and surviving fraction were normalized to the untreated (control) group.

[1] = system: HeLa, PSN1, MiaPaca cells; test: Radiosensitivity assays of FIGS. 8 to 12 (clonogenic survival, foci, cell cycle)
Protocol: Small scale clonogenic survival assays were performed on HeLa cells treated with the different ATR inhibitors at increasing concentrations followed by irradiation at 6 Gy. Data is plotted as decrease in clonogenic survival in relation to the DMSO-treated cells for both irradiated (SF 6 Gy, pink line) and unirradiated cells (plating efficiency, PE; blue line). A high degree of increased radiosensitivity can be seen as a large decrease in survival after irradiation accompanied by a small decrease in unirradiated survival at a specific drug concentration.
FIG. 9. […] PSN1 and MiaPaca cells were plated at low densities, treated with the drugs indicated and assessed for clonogenic survival. • B) Clonogenic survival of PSN1, MiaPaca, and MRCS cells pretreated with Compounds 821, 822, 823 and 824 drugs followed by irradiation. Cells were plated at low densities, treated with drugs indicated 1 h prior to irradiation and assessed for clonogenic survival.
MiaPaca cells were plated at low densities and drug was added at various time points in relation to the 4 Gy radiation treatment: 1 h prior to IR, 5 min after IR, 2 h or 4 h after IR; and removed at various time points. […] Clonogenic survival was assessed after 14 days. […]
FIG. 11. […] The percentage of cells containing more than a certain number of foci was quantitated. • B) Time course of DNA damage foci. […]

[2] = system: DNA damage foci and RAD51 foci; test: Nuclear foci analysis (γH2AX, 53BP1, RAD51); conditions: 1 μM VE-821, 6 Gy
Protocol: Cells were treated with 1 μM VE-821 at various time points in relation to 6 Gy irradiation, as indicated, and fixed at 24 h post-irradiation. Subsequently, cells were stained for (A) γH2AX and (B) 53BP1 foci and the percentage of cells with more than 7 and 5 foci per cell was quantitated, respectively. C, for analysing Rad51 foci formation, cells were fixed at 6 h post-irradiation and the percentage of cells with more than 9 foci per cell was quantitated. Representative images are shown on the right (n=3). *, P<0.05 Cells growing in 96-well plates were treated with 1 μM VE-821 drug 1 h prior to 6 Gy irradiation and fixed in 3% formaldehyde at multiple time points. Cells were subsequently pearmeabalised and blocked in PBS with 0.1% Triton 1% BSA (w/v). Cells were incubated with primary antibody overnight at 4° C. and after a PBS wash incubated with fluorescently labeled secondary antibody followed gy a PBS wash and nuclear staining with DAPI. Images were acquired and foci quantitated using an IN Cell Analyzer 1000 automated epifluorescence microscope and analysis software (GE Healthcare, Cahlfont St. Giles, UK)

[3] = system: pancreatic cancer cell lines; test: Pancreatic cancer cell screen, CellTiter-Glo cell viability assay
Protocol: All cell lines were seeded in 30 μl of tissue culture medium containing 10% FBS into 384-well opaque-bottom plates. The seeding density was based on the logarithmic growth rate of each cell line. After 24 hours, compound stock solutions were added to each well to afford a matrix consisting of 9 concentrations for VE-822 and 7 concentrations for Gemcitabine and Cisplatin. Each well contains either, agent alone or a combination of both agents. The final concentration ranges were as follows: VE-822, 0.3 nM-2 μM; Gemcitabine, 0.3 nM-0.22 μM; Cisplatin, 30 nM-20 μM. The cells were then incubated for 96 hours at 37° C. in an atmosphere of 5% CO2 and 95% humidity.
This assay measures the number of viable cells in a culture based on the quantitation of ATP, which is present in metabolically active cells.
CellTiter-Glo Reagent (Promega, Madison, Wis., USA) was prepared according to the manufacturer's instructions and added 96 hours after compound addition (25 μl/well) to measure cell viability. Luminescence signal was measured with the PHERAStarFS (BMG Labtech, Cary, N.C., USA) automated plate reader. […]
Raw luminescence CellTiter-Glo (CTG) values were normalized to the mean CTG value for the negative control DMSO-treated samples on each assay plate. IC50 values for chemotoxic alone were calculated using DMSO-normalized cell survival values for the samples treated with chemotoxic compound alone. […]

Structure (SMILES) | radiosensitisation of normal cells (cell viability) (MRCS fibroblasts) | sensitization of cancer cells to radiation therapy [1] | RAD51 foci formation ([2]; fixed 6 h post-irradiation, FIG. 5) | 53BP1 and γH2AX foci number ([2]; fixed 24 h post-irradiation, FIG. 5) | repair of DNA damage by homologous recombination ([2]; FIG. 5 panels A, B, C) | synergy with cisplatin and gemcitabine in pancreatic cancer cell lines ([3]; maximum shift in IC50 of each chemotoxic, 96 hours, FIG. 18) | synergy (shift in IC50 of chemotoxic) in pancreatic cancer cell lines ([3]; with chemotoxics, FIG. 19)
CS(=O)(=O)c1ccc(-c2cnc(N)c(C(=O)Nc3ccccc3)n2)cc1 [VE-821] | not normal cells | sensitize cancer cells to radiation therapy | reduces RAD51 foci formation | increases 53BP1 and γH2AX foci number | inhibits repair of DNA damage by homologous recombination |  | 
CNCc1ccc(-c2cc(-c3nc(-c4ccc(S(=O)(=O)C(C)C)cc4)cnc3N)on2)cc1 [VE-822] |  | sensitize cancer cells to radiation therapy |  |  |  | Synergizes with Cisplatin and Gemcitabine | Greater than 3 fold
